Assay results: publication PMC6927413 (Chemical Communications (Cambridge, England), 2019)
Entries after “also recorded” stand apart in the source; their conditions may differ. Like-named read-outs stand apart in the source and are kept apart here.

Experiments:
[1] = target: T1, wt-psBBOX (Pseudomonas sp., UniProt P80193); details: Km for 2OG; cited from earlier work
[2] = target: T2, psBBOX-Y201C-BFA (psBBOX*) (Pseudomonas sp., UniProt P80193, Y201C); assay: 1H NMR inhibition assay of psBBOX-Y201C-BFA (psBBOX*) catalysed GBB turnover; type: biochemical, Pseudomonas sp. AK1
T2 construct: hexa-His tag (pCOLDI) (N); made in house; host or cells: E. coli BL21 (DE3)
T2 sequence (P80193 whole entry Y201C): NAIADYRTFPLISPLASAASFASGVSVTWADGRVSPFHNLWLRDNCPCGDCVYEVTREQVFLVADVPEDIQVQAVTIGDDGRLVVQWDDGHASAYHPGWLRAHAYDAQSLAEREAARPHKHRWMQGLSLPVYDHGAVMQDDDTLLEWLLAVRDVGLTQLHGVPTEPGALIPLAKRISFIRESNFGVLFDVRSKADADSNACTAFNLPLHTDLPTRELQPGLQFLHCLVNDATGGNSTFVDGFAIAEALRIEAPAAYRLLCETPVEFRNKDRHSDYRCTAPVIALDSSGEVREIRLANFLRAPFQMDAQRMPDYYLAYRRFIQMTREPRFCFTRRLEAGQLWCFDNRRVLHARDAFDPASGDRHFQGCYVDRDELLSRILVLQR
Method: (§1) in 20 mM HCl in D2O), 200 μM GBB (Cl- salt), 600 μM 2OG, in Tris-d11 (pH 7.5 in H 2O).
(§2) 2OG, in phosphate buffer (50 mM, pH 7.1, pD 7.5, in D2O). […]
([(NH4)2Fe(SO4)2.6H2O] in 20mM HCl in D2O), 600 μM 2OG, 500 μM L-ascorbate (di-sodium salt), in Tris-d11 ( p H 7 . 5 i n H 2O ) . […]

[3] = target: T1, wt-psBBOX; details: 2 μM psBBOX, 50 μM metal, 50 mM HEPES pH 7.5; for Tm Shift: relative to protein without metal
Method: psBBOX Differential Scanning Fluorimetry (DSF) assays
See also Supplementary Figure S5. […]
concentration 50 μM). Controls contained 10 μL of buffer instead of metal solution. 2 mL of master mix was prepared by mixing 1.25 mL stock of sypro orange (made by diluting 1 μL of […]
and 739 μl of 50 mM HEPES pH 7.5. […]
μL. Metal solutions were made freshly. Experiments was carried out in triplicate.
DSF was performed using a MiniOpticon Real-Time PCR Detection System (Bio-Rad), monitoring protein unfolding using SYPRO orange (Invitrogen) according to reported […]
nm) filters were used for excitation and the emission, respectively. Reaction mixtures contained: 2 μM protein, 50 μM metal and 1 × SYPRO orange (final volume 50 μL). Reagents were prepared in 50 mM HEPES buffer pH 7.5. Iron solution was prepared shortly before […]
temperature increased linearly by 1 °C per minute.
The inflection point, representing Tm, was calculated by fitting the Boltzmann equation to the sigmoidal curves obtained; data were processed using GraphPad Prism 5.0. The Tm shift caused by the addition of small molecules/fragments was determined by subtraction of the “reference” Tm (protein without metal) from the Tm obtained in the presence of the metal.

[4] = target: T3, psBBOX (Pseudomonas sp., UniProt P80193); type: binding, Pseudomonas sp. AK1; details: 1H NMR reporter assay; for GBB displacement: titration into psBBOX-Zn(II)-2OG-GBB complex; for displacement of GBB and 2OG from the psBBOX active site: wild-type psBBOX
T3 construct: N-terminal hexa-His tag (pCOLD I vector); printed for the Y201C variant, inferred for wild type from the pCOLD template (N); made in house; host or cells: Escherichia coli
From the text: NMR based reporter BBOX assays, using either Zn^(II) or Mn^(II) (making use of paramagnetic relaxation enhancement (PRE)) to observe ligand binding are reported.[25] These enable monitoring of co/substrate 2OG/γ-butyrobetaine (GBB; 3) psBBOX binding and inform on binding modes of inhibitors, including whether they displace GBB and/or 2OG. We now report ^19F NMR studies on ligand binding to BBOX; the work was initiated following ^1H NMR observations concerning the binding of Mildronate to psBBOX.
Since psBBOX is dimeric[21],[22] (Fig. 1C), these observations led to the proposal that binding of a second molecule of GBB (or Mildronate) to the psBBOX-Zn^(II)-2OG–GBB complex strengthens binding of the first GBB molecule, i.e. there is cooperativity in substrate binding between the monomers of the dimer.

[5] = target: T4, psBBOX*-Zn(II) (Pseudomonas sp., UniProt P80193, Y201C); assay: Protein-observed 19F NMR (PrOF) ligand titrations with psBBOX*; type: binding, Pseudomonas sp. AK1; details: for effect on the original psBBOX* 19F NMR signal: titration with psBBOX*-Zn(II)
T4 construct: hexa-His tag (pCOLDI) (N); made in house; host or cells: E. coli BL21 (DE3)
T4 sequence (P80193 whole entry Y201C): as above
Method: NMR materials and methods2 […]
broadening of 20 Hz was applied using MestReNova version 11.0. Spectra were referenced to […]
contained: 100 μM psBBOX* in Tris buffer (50 mM, pH 7.5) and 200 mM NaCl in 90% H2O and […]

[6] = system: hBBOX; details: cited from earlier work
[7] = target: T2, psBBOX-Y201C-BFA (psBBOX*); assay: 1H NMR binding assay with psBBOX-Y201C-BFA (psBBOX*); set-up: species or system Pseudomonas sp. AK1
Method: as §1, §2

[8] = target: T3, psBBOX; details: reported GBB substrate analogues, hydroxylated to L-carnitine analogues; cited from earlier work
[9] = target: T1, wt-psBBOX; assay: Fluoride release assay; type: biochemical, Pseudomonas sp. AK1; set-up: N-terminal hexa-His tag (pCOLD I vector); printed for the Y201C variant, inferred for wild type from the pCOLD template (N); made in house; host or cells: Escherichia coli
Method: The combined NMR studies on ligand binding led to the proposal that a new BBOX inhibitor scaffold could be identified by directly incorporating analogues of identified 2OG and GBB binding motifs, comprising appropriately positioned metal chelating and quaternary ammonium moieties, giving a ‘co-substrate/substrate’ mimic. With this in mind, RL190B (8) was synthesised (ESI ^†); it is a relatively potent psBBOX inhibitor (IC50 = 5 μM (fluoride release assay)[31]). […] By contrast with other ligand titrations using psBBOX* such significant line broadening was not observed (e.g. Fig. S11–S13, ESI ^†). Broadening of signals in PrOF NMR is often typical of weaker inhibitors; the significant (and unusual amongst studied compounds) signal attenuation observed with (8) may be a result of its binding in both 2OG and GBB cavities. This may cause changes of conformational mobility/protein destabilisation, potentially yielding a number of indistinct conformational states.
(B) RL190B is a 2OG and substrate mimic. (C) RL190B causes attenuation of the psBBOX* ^19F NMR signal. (D) RL190B inhibition of wt-psBBOX as determined by a fluoride release assay.[31] TEXT PRINTED IN THE PICTURE: (D) RL190B (8): IC50 (psBBOX) = 5 μM

[10] = system: BBOX; set-up: method as in earlier work; details: 2OG-competing, metal-chelating BBOX inhibitor; cited from earlier work

T1 sequence (P80193 whole entry): as the sequence (P80193 whole entry Y201C) above, with C201Y counted along it

Compound | Tm [3] | Tm Shift [3] | further results
O=C(O)CCC(=O)C(=O)O [2OG, 2-oxoglutarate] | – | – | Km [1]: 532 µM
O=C(N[C@@H](CSCc1ccccn1)C(=O)O)c1ncccc1O [AR692B] | – | – | IC50 [2]: 245 µM
[Co+2] [Co(II)] | 6.6±2.2 | 15.7±0.8 °C | –
[Cu+2] [Cu(II)] | 6.3±0.5 | 12.4±1.1 °C | –
[Fe+2] [Fe(II)] | – | 8.4±0.7 °C | –
[K+] [K(I)] | – | 0.0±0.1 °C | –
[Mg+2] [Mg(II)] | 20.1±0.2 | 0.0±0.1 °C | –
C[N+](C)(C)NCCC(=O)[O-] [Mildronate, reference compound] | – | – | inhibition of psBBOX* catalysed GBB turnover ([2]; 1H NMR, 2.5 μM psBBOX*, 100 μM Fe(II), 200 μM GBB, 600 μM 2OG): unable to detect inhibition; GBB displacement [4]: ≤ 60%; GBB displacement ([4]; listed as 4): ~60%; change of 19F NMR spectrum on addition to psBBOX*-Zn(II)-GBB-2OG ([5]; psBBOX*-Zn(II)-GBB-2OG): does not change; also recorded: did not manifest detectable changes; IC50 [6]: 34 to 60 µM; Kd [7]: 12.3 ± 1 µM
[Mn+2] [Mn(II)] | 17.7±1.4 | 1.3±0.2 °C | –
[Na+] [Na(I)] | 20.5±0.4 | 0.2±0.1 °C | –
[Ni+2] [Ni(II)] | 12.3±0.2 | 18.1±0.1 °C | –
C[P+](C)(C)CCCC(=O)[O-] [P-GBB] | – | – | substrate for psBBOX [8]: substrates
C[N+](C)(C)CCCCN(O)C(=O)/C=C/C(=O)O [RL190B, (E)-4-(3-Carboxy-N-hydroxyacrylamido)-N,N,N-trimethylbutan-1-aminium] | – | – | IC50 [9]: 5 µM; IC50 [2]: 15 µM; displacement of GBB and 2OG from the psBBOX active site [4]: displaces both GBB and 2OG; displacement of GBB and 2OG from the psBBOX active site ([4]; listed as 8): displace both GBB and 2OG; effect on the original psBBOX* 19F NMR signal [5]: attenuation; effect on the original psBBOX* 19F NMR signal ([5]; listed as 8): significant broadening and almost complete attenuation
[Zn+2] [Zn(II)] | 6.6±0.7 | 12.8±1.3 °C | –
O=C(N[C@@H](Cc1c[nH]c2ccccc12)C(=O)O)c1nc(Cl)c2ccccc2c1O [compound 5] | – | – | IC50 [10]: 900 nM
